Measured values from BindingDB's records for doi:10.1021/jm000160l (University of Maryland, 2000).

Columns and labels:
[1] = biological target: Glyoxalase I (Saccharomyces cerevisiae) (UniProt P50107); experiment: Binding affinity on yeast glyoxalase I (GlxI) was determined
[2] = biological target: Glyoxalase I (Pseudomonas putida); experiment: Binding affinity on Pseudomonas putida glyoxalase I (GlxI) was determined

Sequence of Glyoxalase I (Saccharomyces cerevisiae) (P50107 whole entry, looked up): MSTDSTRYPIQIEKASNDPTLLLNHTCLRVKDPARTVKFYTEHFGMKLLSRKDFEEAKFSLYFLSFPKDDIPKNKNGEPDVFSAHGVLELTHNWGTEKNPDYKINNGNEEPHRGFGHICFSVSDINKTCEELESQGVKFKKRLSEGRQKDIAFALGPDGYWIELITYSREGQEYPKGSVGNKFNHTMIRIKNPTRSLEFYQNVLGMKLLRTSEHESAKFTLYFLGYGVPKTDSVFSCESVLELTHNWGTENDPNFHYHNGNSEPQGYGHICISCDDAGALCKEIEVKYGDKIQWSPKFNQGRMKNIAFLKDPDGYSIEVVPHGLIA

## CN(O)C(=O)SC[C@H](NC(=O)CC[C@H](N)C(=O)O)C(=O)NCC(=O)O [S-(N-methyl-N-hydroxycarbamoyl)glutathione]
[1]
  Ki: 68 µM
[2]
  Ki: 86 µM
